From patent publication US20130064931A1, “INGREDIENT DELIVERY SYSTEM” (FIRMENICH SA, priority 2010, published 2013) come the findings set out here.

Data set [1] is described as follows: Photostability of compound 1 under UV (xenon lamp) irradiation, HPLC/UV-DAD measurement. Format: physicochemical. Particulars: for photodegradation protection of compound 1 (in words): Example 8, anionic and cationic surfactants; for % remaining (compound 1) / HPLC % remaining: 25 ppm compound 1 in water; for % remaining (compound 1): irradiated 120 min; for Time for complete degradation: compound 1 in water, HPLC % remaining reached 0. On the procedure: (§1) The photostability of compound 1 under UV irradiation was studied as follows.
(§2) The sample to be irradiated was introduced into a transparent glass bottle, placed on a plate and then subjected to irradiation with a xenon lamp (Xenon lamp Suntest XLS+, Atlas Material Testing Technology LLC). The lamp was set to 650 W/m^2, the temperature was kept constant at 45° C. and the plate was turned slowly in order to assure homogeneous UV-exposure of the entire sample. After a fixed interval, the sample was removed and the content of compound 1 remaining was measured by HPLC and Fluorimetry.
Firstly, a standard solution containing 26.44 mg caffeine in 11 LC-MS grade methanol was prepared. For samples containing 10 ppm of compound 1, the sample was placed in a vial, diluted to 500 μl and 50 μl of the standard solution was added; for samples containing 25 ppm of compound 1, the sample was placed in a vial, diluted to 400 μl and 200 μl of the standard solution was added. Each vial was protected from exposure to light by being wrapped in aluminium foil.
The relative content of compound 1 in irradiated samples was calculated against the non-irradiated reference (set at 100%) using an Agilent Technologies 1200 series HPLC equipped with a degasser G1379B, a binary pump G1312B (large-volume mixer was by-passed), a well-plate high performance autosampler G1367D, a thermostatted column compartment G1316B and a UV (DAD) detector G1315C. The column (ZORBAX Eclipse Plus C18 600Bar 2.1×100 mm, 1.8 μm (#959764-902) was set at 60° C.±0.1° C. Two solvents were used: Solvent “A” was formic acid 0.1% in water, ULC/MS, Biosolve (ready-mix cat.# 23244102); solvent “B” was formic acid 0.1% in acetonitrile, ULC/MS, Biosolve (ready-mix cat. #01934125). The solvent flow rate was 0.500 ml/min; Injection: 2 μl.
Solvent gradient: 0 min-1 min: 95% A • 1 min-8 min: 95% A à 100% B • 8 min-10 min: 100% B • 10 min-12 min: 100% B à 95% A • Post-equilibration 1 min
Detector: UV-DAD: • Caffeine (internal standard): signal 273 nm, Bw 16 • Compound 1: signal 264 nm, Bw 8 • signal 230 nm, Bw 8
The signal at 264 nm was used for the quantification calculations.

Data set [2] can be described thus: Photostability of compound 1 under UV (xenon lamp) irradiation, fluorimetry measurement. Format: physicochemical. Conditions: 25 ppm compound 1 in water. The method, then:
as §1, §2
The sample to be studied was placed in quartz cell (width lcm). Fluorescence was detected at an angle 90° to the incident exciting beam using a Fluorolog-3 spectrofluorometer (Model FL3-22, Jobin Yvon-Spex Instruments SA, Inc). […] Excitation and emission spectra of each sample were provided.
For calibration, the excitation and emission spectra of compound 1 solutions were measured before and after irradiation. The intensity of the emission maximum of the unirradiated solution was given the value as 100%. The ratio between the intensities of emission maxima of irradiated and unirradiated samples was measured and the results calculated as a percentage.

A value given as a limit tells only on which side of the number the result lay.

Turning to `CCCCCCCCCCCCCCCC[N+](C)(C)C.[Br-]` [CTAB, Cetyl trimethylammonium bromide, reference compound], the “photodegradation protection of compound 1 (in words)” value in data set [1] is reported as “little or no photodegradation protection”.
On to `CCCNC(=O)C(C)(C)COc1cccc2c1C(N)=NS(=O)(=O)N2` [Compound 1], for which the “% remaining (compound 1)” value is 0% in data set [1] (Polysorbate 80 concentration 0.0001572 % w/w); 0% in data set [1] (Polysorbate 80 concentration 0.0002145 % w/w); 0% in data set [1] (Polysorbate 80 concentration 0.001572 % w/w); 0% in data set [1] (Polysorbate 80 concentration 0.008 % w/w); 0% in data set [1] (Polysorbate 80 concentration 0.01 % w/w); 6.55% in data set [1] (Polysorbate 80 concentration 0.05 % w/w). The “% remaining (compound 1)” value in data set [1] (Polysorbate 80 concentration 0.1 % w/w) is 6.81%; in data set [1] (Polysorbate 80 concentration 0.5 % w/w) it was 12.97%; in data set [1] (Polysorbate 80 concentration 1 % w/w) it was 22.24%; in data set [1] (Polysorbate 80 concentration 4 % w/w) it was 47%; in data set [1] (Polysorbate 80 concentration 8.5 % w/w), 88.57%; in data set [1] (Polysorbate 80 concentration 15 % w/w), 97.03%. Moreover, the HPLC % remaining in data set [1] (time of irradiation 0 min (non-irradiated reference set at 100%)) amounted to 100%; in data set [1] (time of irradiation 5 min) it was 79.7%; in data set [1] (time of irradiation 10 min), 62.2%; in data set [1] (time of irradiation 20 min) it was 46.3%; in data set [1] (time of irradiation 30 min) it was 32.3%; in data set [1] (time of irradiation 45 min), 24.8%. Moreover, the HPLC % remaining in data set [1] (time of irradiation 60 min) came out at 18.7%; in data set [1] (time of irradiation 90 min) it was 6.9%; in data set [1] (time of irradiation 120 min) it was 0%; in data set [1] (time of irradiation 180 min) it was 0%. The “Time for complete degradation” value is recorded as 45 min in data set [1] (initial concentration 5 ppm); 60 min in data set [1] (initial concentration 10 ppm); 90 min in data set [1] (initial concentration 15 ppm); 120 min in data set [1] (initial concentration 25 ppm); more than 180 min in data set [1] (initial concentration 40 ppm). In addition, the Fluorimetry % remaining came to 100% in data set [2] (time of irradiation 0 min (unirradiated solution given the value 100%)); 91.3% in data set [2] (time of irradiation 5 min); 78.5% in data set [2] (time of irradiation 10 min); 52.2% in data set [2] (time of irradiation 20 min); 38.7% in data set [2] (time of irradiation 30 min); 27.8% in data set [2] (time of irradiation 45 min). Moreover, the Fluorimetry % remaining amounted to 21.3% in data set [2] (time of irradiation 60 min), 16.2% in data set [2] (time of irradiation 90 min), 12.7% in data set [2] (time of irradiation 120 min) and 6.4% in data set [2] (time of irradiation 180 min).
In the case of `CCCCCCCCCCCCOS(=O)(=O)[O-].[Na+]` [SDS, Sodium dodecyl sulphate, reference compound], in data set [1], the “photodegradation protection of compound 1 (in words)” value is “little or no photodegradation protection”.
